Measured values published in patent US20130071357A1, “IDENTIFICATION, PROLIFERATION IN SITU, HARVESTING, SEPARATION, AND TRANSPLANTATION OF ADULT-DERIVED REGENERATIVE PLURIPOTENT TRANSITIONAL BLASTOMERE-LIKE STEM CELLS AND METHODS OF TREATMENT THEREOF” (HEYGEN, LLC, priority 2011, published 2013).
≈ marks a conversion by molar mass, not a printed value.

How the values were obtained:
[1] = system: adult pluripotent epiblast-like stem cells; experiment: induction of epiblast-like stem cells in culture; type: cell-based, rat; conditions: for response to progression agents: lineage-uncommitted ELSCs
[2] = system: adult totipotent blastomeric-like stem cells; experiment: induction of blastomeric-like stem cells in culture; type: cell-based, rat; conditions: for response to progression agents: lineage-uncommitted BLSCs
From the text: 1961; Rohme 1981; Young and Black, 2005a].
FIG. 7. Blastomeric-like stem cells (BLSCs) harvested from male Sprague-Dawley out bred rat 0001 and propagated from a single cell derived by serial dilution clonogenic analysis, then genomically labeled with LacZ to synthesize the beta-galactosidase gene product. Clone designated as Scl-44beta. […] B-L is phase contrast microscopy to show unstained cells in field of view. […] Original magnification 200×.
FIG. 8. Blastomeric-like stem cells (BLSCs) harvested from male Sprague-Dawley out bred rat 0001 and propagated from a single cell derived by serial dilution clonogenic analysis, then genomically labeled with LacZ to synthesize the beta-galactosidase gene product. Clone designated as Scl-44beta.

[3] = system: adult-derived regenerative pluripotent transitional blastomere-like stem cells; experiment: differentiation of Tr-BLSCs after exposure to dexamethasone; type: cell-based; conditions: extended exposure to a range of dexamethasone concentrations
From the text: After extended exposure to a range of dexamethasone concentrations, adult-derived regenerative pluripotent transitional blastomere-like stem cells differentiated into more than 50 discrete cell types.

[4] = solubility of dexamethasone; type: physicochemical
Experimental: Dexamethasone solution, pH 7.4: This is typically made up in absolute ethanol (EtOH) because it is not soluble in water or media. Weigh out 0.039 gm of Dexamethasone (Dex, catalog #D-1756, Sigma) and add to 10 ml of absolute EtOH. This will make a 1×10^−2 M stock solution. Store this solution at −20° C. This is the most concentrated solution of Dex that can be made with complete solubility. Add 1 ml of the stock Dex solution made above to 9-ml Opti-MEM I medium with Glutamax. Aliquot 9 ml of this solution as 500 μl quantities in 2 ml cryovials and store at −20° C. Label these tubes as […]. Take the remaining 1 ml of 10^−6M Dex and add to 9 ml of Opti-MEM I medium with Glutamax. Aliquot 9 mls and reserve 1 ml as before. Label these tubes as 1×10^−7M Dex. Take the remaining 1 ml of 10^−7M Dex and add to 9 ml of Opti-MEM I medium with Glutamax. Aliquot 9 mls and reserve 1 ml as before. Label these tubes as 1×10^−8M Dex. Take the remaining 1 ml of 10^−8M Dex and add to 9 ml of Opti-MEM I medium with Glutamax. Aliquot 9 mls and reserve 1 ml as before. Label these tubes as 1×10^−9M Dex. Take the remaining 1 ml of 10^−9M Dex and add to 9 ml of Opti-MEM I medium with Glutamax. Aliquot all 10 mls. Label these tubes as 1×10^−10M Dex. These aliquots will bring 500 mls of media to the concentration of Dex labeled on the tube. Store the cryovials at −20° C.

Compound | response to progression agents [1] | response to progression agents [2] | also measured
IGF-II: progression agent | unresponsive | unresponsive | –
IGF-I: progression agent | unresponsive | unresponsive | –
hepatocyte growth factor: lineage-induction agent | – | – | response to lineage-induction agent ([1]; ELSCs): forming cells belonging to the endodermal lineage; response to lineage-induction agent ([2]; BLSCs): forming cells belonging to the endodermal lineage
C[C@@H]1C[C@H]2[C@@H]3CCC4=CC(=O)C=C[C@]4(C)[C@@]3(F)[C@@H](O)C[C@]2(C)[C@@]1(O)C(=O)CO [dexamethasone, Dexamethasone] | – | – | discrete cell types formed [3]: more than 50 discrete cell types; solubility in water or media [4]: not soluble; solubility ([4]; absolute ethanol, organic solvent or mixture, thermodynamic from solid, absolute EtOH, read-out: most concentrated solution with complete solubility): 10 mM (≈ 3920 µg/mL)
insulin: progression agent | unresponsive | unresponsive | induction in the presence of insulin ([2]; clone Scl-44beta, insulin at 2 micrograms per ml, absence of inhibitors): no induction occurs
